From US20240190868A1, “SOS1 INHIBITORS” (Acerand Therapeutics (USA) Limited, priority 2022, published 2024) come the findings set out here.

Bounds are passed on as bounds.

This assay relates to cellular pERK in NCI-H1975 cells (EGFR/L858R-T790M). In words: pERK potency assay (In Cell ELISA). The format is cell-based. Conditions: Homo sapiens, 1 h compound incubation. An excerpt: The assay measures the ability of a compound to inhibit SOS1 function in cells. SOS1 activates RAS proteins by catalyzing the conversion of RAS GDP to RAS GTP in response to receptor tyrosine kinase activation. Activation of RAS induces a sequence of cellular signaling events that result in increased phosphorylation of ERK at Threonine 202 and Tyrosine 204 (pERK). The procedure (i.e., In Cell ELISA as described below) measures the level of cellular pERK in response to a test compound in NCI-H1975 cells (EGFR/L858R-T790M).
First, NCI-H1975 cells were grown and maintained using media and procedures recommended by the ATCC. A day before compound addition, cells were plated in poly-D-lysine coated 96-well cell culture plates (Corning® BioCoat® Cat #356640) at 25000 cells/well/100 μL and grown overnight in an incubator at 37° C. with 5% CO2. A solution of a test compound was prepared with 3-fold serial dilutions in DMSO having a top concentration of 6 mM. On the day of the assay, 50 μL of a test compound dilution in media was added to each well of cell culture plate with a final compound concentration in the range of 0.001 μM to 20 μM. After addition of the compound, cells were incubated for 1 h at 37° C. with 5% CO2, after which the culture medium was removed. Cells were fixed with 4% formaldehyde in phosphate-buffered saline (PBS) and incubated at RT for 20 min. The plate was washed three times with PBST (PBS with 0.05% Tween®-20), followed by incubation with 100 μL of pre-cooled methanol at −20° C. for 20 min. After incubation, methanol was removed. The plate was again washed with PBST. Cells were then permeabilized with 100 μL/well of 0.1% Triton X-100 in PBS at RT for 20 min and then quenched with a quenching buffer (PBST containing 1% H2O2 and 0.1% sodium azide) for 20 min at RT with gentle shaking. After washing once with PBST, a blocking buffer (250 uL/well, Pierce™ Protein-Free-PBS Blocking Buffer, Cat #37572) was then added to the cells for 1-h incubation at RT, followed by an anti-pERK antibody (cell signaling, 1:1000 dilution in 5% BSA in PBST) incubation overnight at 4° C. and a secondary antibody-HRP (Jackson immunoresearch, 1:3000 dilution in 5% BSA in PBST) incubation at RT for 1 h. PBST wash was carried out after each step three times. Before the addition of a substrate (Advansta ELISABright™), the plate was washed with PBS twice to remove detergent residues. The Cellular pERK level was determined using the microplate reader (Biotek Synergy™ H1) to detect the chemiluminescence signal. IC50 was determined by fitting a 4-parameter sigmoidal concentration-response model.
In the case of `Cc1c(C#N)cccc1[C@@H](C)/N=c1\nc(C)n(C)c2cnc(N3CC4CC4C3)cc12` (some centres unmarked) [Compound 72], the IC50 was < 0.1 µM.

In the case of `Cc1c(C#N)cccc1[C@@H](C)/N=c1\nc(C)n(C)c2cnc(N3CC(C)(O)C3)cc12` [Compound 73], the IC50 was < 0.1 µM.

As for `Cc1c(C#N)cccc1[C@@H](C)/N=c1\nc(C)n(C)c2cnc(N3CCOC[C@H]3C)cc12` [Compound 74], the half-inhibitory concentration (IC50) was < 0.1 µM.

For `COC1CN(c2cc3/c(=N/[C@H](C)c4cccc(C#N)c4C)nc(C)n(C)c3cn2)C1` [Compound 76], the concentration for half-maximal inhibition (IC50) was < 0.1 µM.

Consider `Cc1c([C@@H](C)/N=c2\nc3n(c4cnc(N5CCOCC5)cc24)CCC3)cccc1C(F)(F)F` [Compound 77], for which the half-maximal inhibitory concentration (IC50) is < 0.1 µM.

In the case of `Cc1c([C@@H](C)/N=c2\nc(C)n(C(C)C)c3cnc(N4CCOCC4)cc23)cccc1C(F)(F)F` [Compound 78], the half-maximal inhibitory concentration (IC50) was < 0.1 µM.

For the compound `Cc1c([C@@H](C)/N=c2\nc(C)n(C3CC3)c3cnc(N4CCOCC4)cc23)cccc1C(F)(F)F` [Compound 79], the 50% inhibitory concentration (IC50) was < 0.1 µM.

Regarding `Cc1c([C@@H](C)/N=c2\nc(C)n(C)c3cnc(N4CCn5c(C(F)F)cnc5C4)cc23)cccc1C(F)(F)F` [Compound 80, (R,Z)-6-(3-(difluoromethyl)-5,6-dihydroimidazo[1,2-a]pyrazin-7(8H)-yl)-1,2-dimethyl-N-(1-(2-methyl-3-(trifluoromethyl)phenyl)ethyl)pyrido[3,4-d]pyrimidin-4(1H)-imine], the IC50 was < 0.1 µM.

Consider `CC(=O)N1CCC(O)(c2cc3/c(=N/[C@H](C)c4cccc(C(F)(F)F)c4C)ncn(C)c3c(=O)n2C)CC1` [Compound 81, (R,Z)-6-(1-acetyl-4-hydroxypiperidin-4-yl)-1,7-dimethyl-4-((1-(2-methyl-3-(trifluoromethyl)phenyl)ethyl)imino)-1,7-dihydropyrido[3,4-d]pyrimidin-8(4H)-one], for which the 50% inhibitory concentration (IC50) was < 0.1 µM.

As to `CC(=O)N1CC=C(c2cc3/c(=N/[C@H](C)c4cccc(C(F)(F)F)c4C)ncn(C)c3c(=O)n2C)CC1` [Compound 82, (R,Z)-6-(1-acetyl-1,2,3,6-tetrahydropyridin-4-yl)-1,7-dimethyl-4-((1-(2-methyl-3-(trifluoromethyl)phenyl)ethyl)imino)-1,7-dihydropyrido[3,4-d]pyrimidin-8(4H)-one], the IC50 was < 0.1 µM.

For the compound `COc1cc2c(cc1O[C@H]1CCOC1)/c(=N/[C@H](C)c1cccc(C(F)(F)F)c1C)nc(C)n2C` [Compound 84, (Z)-7-methoxy-1,2-dimethyl-N—((R)-1-(2-methyl-3-(trifluoromethyl)phenyl)ethyl)-6-(((S)-tetrahydrofuran-3-yl)oxy)quinazolin-4(1H)-imine], the half-maximal inhibitory concentration (IC50) is < 0.1 µM.

Consider `CC(=O)NCC#Cc1cc2/c(=N/[C@H](C)c3cccc(C(F)F)c3F)nc(C)n(C)c2cn1` [Compound 85, (R,Z)—N-(3-(4-((1-(3-(difluoromethyl)-2-fluorophenyl)ethyl)imino)-1,2-dimethyl-1,4-dihydropyrido[3,4-d]pyrimidin-6-yl)prop-2-yn-1-yl)acetamide], for which the 50% inhibitory concentration (IC50) is < 0.1 µM.

For the compound `CC(=O)N1CCN(C(=O)c2cc3/c(=N/[C@H](C)c4cccc(C(F)F)c4F)nc(C)n(C)c3cn2)CC1` [Compound 89, (R,Z)-1-(4-(4-((1-(3-(difluoromethyl)-2-fluorophenyl)ethyl)imino)-1,2-dimethyl-1,4-dihydropyrido[3,4-d]pyrimidine-6-carbonyl)piperazin-1-yl)ethan-1-one], the IC50 was < 0.1 µM.

Turning to `CC(=O)N1CCN2c3cc4/c(=N/[C@H](C)c5cccc(C(F)F)c5F)ncn(C)c4cc3OC[C@H]2C1` [Compound 92, 1-((R,Z)-11-(((R)-1-(3-(difluoromethyl)-2-fluorophenyl)ethyl)imino)-8-methyl-1,2,4a,5,8,11-hexahydropyrazino[1′,2′:4,5][1,4]oxazino[3,2-g]quinazolin-3(4H)-yl)ethan-1-one], the half-maximal inhibitory concentration (IC50) was < 0.1 µM.

As to `Cc1n/c(=N\[C@H](C)c2cccc(C(F)F)c2F)c2cc(C3(C(F)F)CC3)ncc2n1C` [Compound 94, (R,Z)—N-(1-(3-(difluoromethyl)-2-fluorophenyl)ethyl)-6-(1-(difluoromethyl)cyclopropyl)-1,2-dimethylpyrido[3,4-d]pyrimidin-4(1H)-imine], the 50% inhibitory concentration (IC50) was < 0.1 µM.

Take `Cc1n/c(=N\[C@H](C)c2cccc(C(F)F)c2F)c2cc(C3=CCN(S(C)(=O)=O)CC3)ncc2n1C` [Compound 97, (R,Z)—N-(1-(3-(difluoromethyl)-2-fluorophenyl)ethyl)-1,2-dimethyl-6-(1-(methylsulfonyl)-1,2,3,6-tetrahydropyridin-4-yl)pyrido[3,4-d]pyrimidin-4(1H)-imine]: the 50% inhibitory concentration (IC50) was < 0.1 µM.

Regarding `CC(=O)NC/C=C/c1cc2/c(=N/[C@H](C)c3cccc(C(F)F)c3F)nc(C)n(C)c2cn1` [Compound 98, N-((E)-3-((Z)-4-(((R)-1-(3-(difluoromethyl)-2-fluorophenyl)ethyl)imino)-1,2-dimethyl-1,4-dihydropyrido[3,4-d]pyrimidin-6-yl)allyl)acetamide], the IC50 is < 0.1 µM.
